The results in this text go back to patent US20070021509A1, “Phosphate transport inhibitors” (priority 2001, published 2007).

The structures appear in SMILES notation. A value given as a limit tells only on which side of the number the result lay.

Experiment [1] relates to sodium-dependent phosphate uptake into isolated rabbit intestinal rings. The experiment in a line: Ex vivo 33P uptake into isolated rabbit intestinal rings. The experiment is classed as cell-based. Further details: concentration or dose not given beside the values. To be noted: Table 14, 15-minute incubation. As for the experimental part: For the ex vivo assay, ^33P uptake into isolated rabbit intestinal rings was measured using a modification of the method described by Crane and Mandelstam [Robert K. Crane and Paul Mandelstam “The active transport of sugars by various preparations of hamster intestine” Biochim. Biophys. Acta 45: 460-476, 1960; the contents of which are incorporated herein by reference]. Male New Zealand rabbits 2-3 kg in weight were aeuthinized by an i.v. injection of Fatal Pluse®. A midline laparotomy was performed and the duodenum from the pyloric junction to the ligament of Trietz isolated and excised. Segments of bowel were everted, cut into 2-4 mm ring-like pieces and placed into a modified Hepes-Buffered Ringer's solution in which Na^+ had been iso-osmotically replaced with N-methyl-D-glucamine. To measure phosphate uptake, six rings were incubated in a 50 ml conical tube containing a 10 ml volume of Ringer's solution, with or without Na^+, bubbled with 100% O2 and maintained at 37° C. 0.5 uCi/ml ^33P was then incubated with the rings for a 15-minute period, the tissue harvested, rinsed, blotted dry and weighed. Tissues were then solublized by digesting them in a 5 ml volume of Solvable® tissue solubilizer overnight at 50° C. and ^33P levels determined by scintillation counting. Sodium-dependent uptake of ^33P was calculated by determining the difference in uptake between rings incubated in the presence and absence of Na^+ in the Hepes-Buffered Ringer's solution. Results are reported as the percentage inhibition of phosphate and glucose uptake, respectively.

For experiment [2], the system named is glucose uptake into isolated rabbit intestinal rings. The experiment is described as follows: Ex vivo glucose uptake into isolated rabbit intestinal rings. The experiment is classed as cell-based. Also noted: concentration or dose not given beside the values. The settings on record: Table 14. As for the experimental part: For the ex vivo assay, ^33P uptake into isolated rabbit intestinal rings was measured using a modification of the method described by Crane and Mandelstam [Robert K. Crane and Paul Mandelstam “The active transport of sugars by various preparations of hamster intestine” Biochim. Biophys. Acta 45: 460-476, 1960; the contents of which are incorporated herein by reference]. Male New Zealand rabbits 2-3 kg in weight were aeuthinized by an i.v. injection of Fatal Pluse®. A midline laparotomy was performed and the duodenum from the pyloric junction to the ligament of Trietz isolated and excised. Segments of bowel were everted, cut into 2-4 mm ring-like pieces and placed into a modified Hepes-Buffered Ringer's solution in which Na^+ had been iso-osmotically replaced with N-methyl-D-glucamine. […] […] Tissues were then solublized by digesting them in a 5 ml volume of Solvable® tissue solubilizer overnight at 50° C. and ^33P levels determined by scintillation counting. Sodium-dependent uptake of ^33P was calculated by determining the difference in uptake between rings incubated in the presence and absence of Na^+ in the Hepes-Buffered Ringer's solution. Results are reported as the percentage inhibition of phosphate and glucose uptake, respectively.

The subject of experiment [3] is glucose transport (rabbit intestinal BBMV). The experiment is described as follows: In vitro BBMV assay, glucose transport inhibiting activity. Format: biochemical. To be noted: Table 14. As for the experimental part:
In the remaining wells, used for compound containing reactions, are placed MAX Control Buffer. The Hot Stock Plate was stored at room temperature. To each well of an appropriate 96-well filter plate was added approximately 200 μL Stop Buffer to pre-wet the filters for at least 15 minutes prior to assay. The “Compound Plate” was set-up by loading appropriate wells of a 96-well, polypropylene, V-bottom plate with compound solutions. This could be for testing inhibition at a single “screening” concentration, or to measure the potency of compounds by dose-response analysis at the appropriate concentrations. A “BBMV Plate” was set up by loading a 96-well, polypropylene, V-bottom plate with BBMVs at 0.5-2.0 mg/mL (prepared as described above). The BBMV Plate was kept on ice until just prior to the assay. The reaction was initiated by aspiration of the hot uptake buffers (19 uL), from the Hot Stock Plate, and the compound solutions (2 uL), from the Compound Plate, dispensing into an empty 96-well V-bottom plate (Assay Plate), then immediately aspirating the BBMVs (19 μL), from the BBMV Plate and dispensing into the same Assay Plate. The addition of the BBMVs to the assay plate marked the reaction start time. After 15 minutes, the reaction was quenched by addition of 200 μL of STOP buffer from a reservoir. The Stop Buffer was aspirated by vacuum from the wells, through the filters, of the pre-soaked filter plate using a filter plate manifold. The quenched reactions were aspirated and transferred to the filter plate under vacuum. The filters were washed 2 times with 200 μL STOP buffer under vacuum. The filter plate was removed, dried, and the bottom of the filter plate was sealed. To each well of the filter plate was added 50 μL of scintillant (Microscint-20). A top seal was then applied to the filter plate. The plate was incubated for approximately 20 minutes before reading for ^33P CPM on a scintillation counter (i.e., TopCount-Packard Instruments). Percent inhibition was calculated by comparing the CPM values from compound containing wells to the MAX and MIN controls on the same plate using the following formula. 1−((CPM−MIN)/(MAX−MIN)) IC50 values were calculated from non-linear regression analysis within an appropriate software package (i.e., Prism GraphPad).
The phosphate transport inhibitors indicated in Table 14 were tested in both an in vitro and an ex vivo assay to determine their activity. The in vitro assay is identical to the assay described in Example 66, with the exception that the glucose transport inhibiting activity of the compounds was also measured. Results are reported as the IC50 value for the various types of inhibition. A preferred compound will have high phosphate transport inhibiting activity, but little or no glucose transport inhibiting activity.

By IC50 is commonly meant the concentration needed to halve the response being measured. For `COc1ccccc1CNC(=O)c1cc(Br)ccc1NS(=O)(=O)c1ccc(OC(F)(F)F)cc1` [Example 70, 5-Bromo-N-(2-methoxy-benzyl)-2-(4-trifluoromethoxy-benzenesulfonylamino)-benzamide], in experiment [1], the “% Phosphate Transport Inhibition” value was found to be 48%. For the same molecule, the “% Glucose Transport Inhibition” value in experiment [2] came to 8%. Also, in experiment [3], the IC50 is more than 100 µM.

In the case of `O=C(NCc1ccc(F)cc1)c1cc(Br)ccc1NS(=O)(=O)c1ccc(OC(F)(F)F)cc1` [Example 71, 5-Bromo-N-(4-fluoro-benzyl)-2-(4-trifluoromethoxy-benzenesulfonylamino)-benzamide], in experiment [1], the “% Phosphate Transport Inhibition” value was determined as 53%. Besides, the “% Glucose Transport Inhibition” value in experiment [2] was 26%. For the same molecule, in experiment [3], the IC50 is more than 100 µM.

With `O=C(NCc1ccc(OC(F)(F)F)cc1O)c1cc(Br)ccc1NS(=O)(=O)c1ccc(OC(F)(F)F)cc1` [Example 75, 5-Bromo-N-(2-hydroxy-4-trifluoromethoxy-benzyl)-2-(4-trifluoromethoxy-benzenesulfonylamino)-benzamide], the “% Phosphate Transport Inhibition” value in experiment [1] was 56%. Moreover, the “% Glucose Transport Inhibition” value in experiment [2] was found to be 0%. This molecule registered a 50% inhibitory concentration (IC50) in experiment [3] of 80 µM.

As to `COc1ccc(F)cc1CNC(=O)c1cc(Br)ccc1NS(=O)(=O)c1ccc(OC(F)(F)F)cc1` [Example 78, 5-Bromo-N-(5-fluoro-2-methoxy-benzyl)-2-(4-trifluoromethoxy-benzenesulfonylamino)-benzamide], the “% Phosphate Transport Inhibition” value in experiment [1] worked out at 45%. For the same molecule, the “% Glucose Transport Inhibition” value in experiment [2] amounted to 4%. Besides, the IC50 in experiment [3] is 100 µM.

With `O=C(Nc1cccc(C(F)(F)F)c1)Nc1cccc(C(F)(F)F)c1` [Example 82, 1,3Bis(3-Trifluoromethylphenyl)urea], the “% Phosphate Transport Inhibition” value in experiment [1] worked out at 25%. The “% Glucose Transport Inhibition” value in experiment [2] is reported as 26%. In addition, in experiment [3], half-maximal inhibition (IC50) required 54 µM.

Take `O=C(Nc1cc(C(F)(F)F)cc(C(F)(F)F)c1)NC1CCCCC1` [Example 83, 1-Cyclohexyl-3-(3,5-Bistrifluoromethyl-phenyl)-urea]: in experiment [1], the “% Phosphate Transport Inhibition” value came out at 76%. For the same molecule, in experiment [2], the “% Glucose Transport Inhibition” value is listed as 0%. This molecule also registered an IC50 in experiment [3] of 82 µM.

As for `Cn1nc(C(C)(C)C)cc1C(=O)Nc1ccc(C(F)(F)F)cc1` [Example 84, 5-tert-Butyl-2-methyl-2H-pyrazole-3-carboxylic acid (4-trifluoromethyl-phenyl)-amide], the “% Phosphate Transport Inhibition” value in experiment [1] was 41%. Besides, the “% Glucose Transport Inhibition” value in experiment [2] came out at 21%. This molecule also returned an IC50 in experiment [3] of 99 µM.

For the molecule `O=C(Nc1cccc(C(F)(F)F)c1)Nc1cc(Cl)ccc1Cl` [Example 85, 1-(2,5-Dichloro-phenyl)-3-(3-trifluoromethyl-phenyl)-urea], in experiment [1], the “% Phosphate Transport Inhibition” value turned out to be 58%. Besides, in experiment [2], the “% Glucose Transport Inhibition” value is 0%. Further, the IC50 in experiment [3] is more than 100 µM.

As to `O=C(Nc1cccc(C(F)(F)F)c1)Nc1ccc(F)c([N+](=O)[O-])c1` [Example 86, 1-(4-Fluoro-3-nitro-phenyl)-3-(3-trifluoromethyl-phenyl)-urea], the “% Phosphate Transport Inhibition” value in experiment [1] was found to be 30%. For the same molecule, the “% Glucose Transport Inhibition” value in experiment [2] is 4%. This molecule showed an IC50 in experiment [3] of 34 µM.

For the molecule `Cl.N=C(Nc1ccc(Br)c(C(F)(F)F)c1)Nc1ccc(Br)c(C(F)(F)F)c1` [Example 87, N,N′-Bis-(4-bromo-3-trifluoromethyl-phenyl)-guanidine Hydrochloride], the “% Phosphate Transport Inhibition” value in experiment [1] came out at 71%. Besides, in experiment [2], the “% Glucose Transport Inhibition” value came to 3%. Further, in experiment [3], half-maximal inhibition (IC50) required 94 µM.

On to `Cl.N=C(Nc1cc(C(F)(F)F)cc(C(F)(F)F)c1)Nc1cc(C(F)(F)F)cc(C(F)(F)F)c1` [Example 88, N,N′-Bis-(3,5-bis-trifluoromethyl-phenyl)-guanidine Hydrochloride], for which, in experiment [1], the “% Phosphate Transport Inhibition” value was 60%. In addition, in experiment [2], the “% Glucose Transport Inhibition” value was found to be 0%. The molecule also gave a concentration for half-maximal inhibition (IC50) in experiment [3] of 63 µM.

Regarding `Cl.N=C(Nc1ccc(Cl)c(C(F)(F)F)c1)Nc1ccc(Cl)c(C(F)(F)F)c1` [Example 89, N,N′-Bis-(4-chloro-3-trifluoromethyl-phenyl)-guanidine Hydrochloride], in experiment [1], the “% Phosphate Transport Inhibition” value was 44%. Also, the “% Glucose Transport Inhibition” value in experiment [2] was determined as 0%. It took 88 µM to reach half-maximal inhibition in experiment [3] (IC50).

For `Cl.N=C(Nc1ccc(C(F)(F)F)c(C(F)(F)F)c1)Nc1ccc(C(F)(F)F)c(C(F)(F)F)c1` [Example 90, N,N′-Bis-(3,4-bis-trifluoromethyl-phenyl)-guanidine Hydrochloride], the “% Phosphate Transport Inhibition” value in experiment [1] is recorded as 93%. Moreover, the “% Glucose Transport Inhibition” value in experiment [2] was 0%. The IC50 in experiment [3] is more than 100 µM.
